The subject of one data set is A549. Kind of data set: hypoxic/normoxic cytotoxicity, A549. In kind it is cell-based. The conditions noted are these: Homo sapiens, survival at 72 h, n=3, conjugate as TPZ groups.
For another data set, the system named is Calu-3. The data set can be described thus: hypoxic/normoxic cytotoxicity, Calu-3. In kind it is cell-based. As to conditions: Homo sapiens, survival at 72 h, n=3, conjugate as TPZ groups.
In another data set the test system is Calu-6. Kind of data set: hypoxic/normoxic cytotoxicity, Calu-6. In kind it is cell-based. As to conditions: Homo sapiens, survival at 72 h, n=3, conjugate as TPZ groups.
The test system of another data set is HepG2. Kind of data set: hypoxic/normoxic cytotoxicity, HepG2. In kind it is cell-based. The conditions noted are these: Homo sapiens, survival at 72 h, n=3, conjugate as TPZ groups.
The next data set has as its system Hep3B2. Kind of data set: hypoxic/normoxic cytotoxicity, Hep3B2. In kind it is cell-based. As to conditions: Homo sapiens, Hep3B, survival at 72 h, n=3, conjugate as TPZ groups.
For another data set, the system named is SNU-423. The data set can be described thus: hypoxic/normoxic cytotoxicity, SNU-423. As to conditions: Homo sapiens, survival at 72 h, n=3, conjugate as TPZ groups. In kind it is cell-based.
The next data set has as its system SKBr3. The data set can be described thus: hypoxic/normoxic cytotoxicity, SKBr3. Type of data set: cell-based. As to conditions: Homo sapiens, survival at 72 h, n=3, conjugate as TPZ groups.
The test system of the next data set is MDA-MB-468. The data set can be described thus: hypoxic/normoxic cytotoxicity, MDA-MB-468. In kind it is cell-based. As to conditions: Homo sapiens, survival at 72 h, n=3, conjugate as TPZ groups.
For another data set, the system named is T47D. Kind of data set: hypoxic/normoxic cytotoxicity, T47D. Type of data set: cell-based. As to conditions: Homo sapiens, survival at 72 h, n=3, conjugate as TPZ groups.
Another data set has as its system MCF-7. The data set can be described thus: hypoxic/normoxic cytotoxicity, MCF-7. Type of data set: cell-based. As to conditions: Homo sapiens, survival at 72 h, n=3, conjugate as TPZ groups.
Another data set concerns MDA-MB-231. The data set can be described thus: hypoxic/normoxic cytotoxicity, MDA-MB-231. As to conditions: Homo sapiens, survival at 72 h, n=3, conjugate as TPZ groups. Type of data set: cell-based.
The next data set relates to FaDu. The data set can be described thus: hypoxic/normoxic cytotoxicity, FaDu. In kind it is cell-based. The conditions noted are these: Homo sapiens, survival at 72 h, n=3, conjugate as TPZ groups.
A further data set deals with MIA PACA-2. Kind of data set: hypoxic/normoxic cytotoxicity, MIA PACA-2. Type of data set: cell-based. The conditions noted are these: Homo sapiens, survival at 72 h, n=3, conjugate as TPZ groups.
In the next data set the test system is CAL-27. The data set can be described thus: hypoxic/normoxic cytotoxicity, CAL-27. As to conditions: Homo sapiens, survival at 72 h, n=3, conjugate as TPZ groups. In kind it is cell-based.
Data set [1] has as its system human tumoral cell lines. Kind of data set: tumour cell viability assays on a panel of human cancer cell lines (overall statements, FIG. 8-10). The conditions noted are these: eight cancer cell lines, 3 h exposure, FIG. 9 and 10.
For data set [2], the system named is MDA-MB-231 breast cancer cells. The data set can be described thus: MTT toxicity of curcumin and curcumin-HAB conjugate. In kind it is cell-based. As to the method:
MDA-MB-231 breast cancer cells were cultured in RPMI-1640 (Gibco) containing 10% FBS, 1% Pen-Strep, L-Glutamine 2 mM (medium) at 37° C. in a humidified 5% CO2 atmosphere. To determine the toxicity of curcumin and a curcumin-HAB conjugate, cells were seeded in 96-well plates at a density of 1,000 cells per well in medium and left to attach for 24 hours. Medium was then removed and replaced with medium containing various concentrations of curcumin or the curcumin-HA conjugate. […] After this time, drug containing medium was removed, replaced with fresh medium and cells incubated for a further 96 hours. […] Briefly, 50 μl of MTT solution (0.5 mg/ml in cell culture medium) was added to each well. After incubation for a further 4 h at 37° C. the medium was removed from each well and replaced with 200 μl of DMSO to dissolve the formazan crystals. The Absorbance in each well was then read at a wavelength of 450 nm using a Tecan Infinite M200 plate-reader using I-control software. The relative cell viability (%) was calculated by the formula [A]test/[A]control×100, where “[A]test” is the absorbance of the test sample, and “[A]control” is the absorbance of the control cells incubated solely with culture medium.

For data set [3] the following is noted: literature; cited from earlier work.
The next data set has as its system LNCaP tumor. Kind of data set: tumor growth in LNCaP tumor-bearing athymic nude mice. The conditions noted are these: i.v. every 3 day, 21 days. Type of data set: in vivo. On the procedure:
Tumor-bearing mice were prepared by injecting a suspension of LNCaP cells 1×10^6 in saline physiological solution (100 μL) into the subcutaneous dorsa of athymic nude mice (seven weeks old, 20-25 g). After fourteen days of appropriate tumor growth, LNCaP bearing mice were divided into eight groups (n=10 for each group). Treatment was initiated when the tumor volume reached 90 mm^3. The mice were then i.v. injected with 200 μL of the following solutions: […] DMSO to obtain doses of 3, 6, 25 mg/Kg, HAB to obtain a dose of 50 mg/Kg, and DMSO 11% wt. in PBS. Intravenous injections, administered in tail vein, were performed every 3 day for a total period of 21 days of treatment and then sacrificed according to ethical laws in force, following a literature method^1. The tumor size was determined by caliper measurement of the largest and perpendicular diameters during the time of treatment. Tumor volumes were calculated according to the formula: V=a×b^2×0.52, where a is the largest superficial diameter and b is the smallest superficial diameter, according to a literature procedure^17.

For data set [4], the system named is NCI-H209 lung cancer cells. The conditions noted are these: 24 h; cited from earlier work.
Another data set deals with MCF7 breast cancer cells. As to conditions: 72 h; cited from earlier work.
In another data set the test system is 16-F10 melanoma cells. As to conditions: 72 h; cited from earlier work.
Data set [5] concerns HK1 squamous nasopharynx carcinoma cells. As to conditions: 72 h; cited from earlier work.
The subject of data set [6] is C66-1 squamous nasopharynx carcinoma cells. The conditions noted are these: 72 h; cited from earlier work.
Data set [7] has as its system human tumoral cell lines.
The mark [8] stands for this setting: A549, A549, 0.1% O2, 3 h exposure.
Setting [9] is: Calu-3, Calu-3, 0.1% O2, 3 h exposure.
[10] abbreviates: Calu-3, Calu-3, Air, 3 h exposure.
Setting [11] is: Calu-6, Calu-6, 0.1% O2, 3 h exposure.
Where [12] appears, read: Calu-6, Calu-6, Air, 3 h exposure.
Setting [13] is: HepG2, HepG2, 0.1% O2, 3 h exposure.
Setting [14] is: HepG2, HepG2, Air, 3 h exposure.
Setting [15] is: SNU-423, SNU-423, 0.1% O2, 3 h exposure.
Setting [16] is: SNU-423, SNU-423, Air, 3 h exposure.
The mark [17] stands for this setting: SK-BR-3, SKBr3, 0.1% O2, 3 h exposure.
Setting [18] is: SK-BR-3, SKBr3, Air, 3 h exposure.
The mark [19] stands for this setting: MDA-MB-468, MDA-MB-468, 0.1% O2, 3 h exposure.
Setting [20] is: MDA-MB-468, MDA-MB-468, Air, 3 h exposure.
The mark [21] stands for this setting: MCF7, MCF-7, 0.1% O2, 3 h exposure.
The mark [22] stands for this setting: MDA-MB-231, MDA-MB-231, 0.1% O2, 3 h exposure.
[23] abbreviates: MDA-MB-231, MDA-MB-231, Air, 3 h exposure.
Setting [24] is: MIA PaCa-2, MIA PACA-2, 0.1% O2, 3 h exposure.
[25] abbreviates: MIA PaCa-2, MIA PACA-2, Air, 3 h exposure.
Setting [26] is: CAL-27, CAL-27, 0.1% O2, 3 h exposure.
The mark [27] stands for this setting: CAL-27, CAL-27, Air, 3 h exposure.

Structures are written as SMILES.

Consider `O=C(NCCc1ccc(O)c(O)c1)Nc1n[n+]([O-])c2ccccc2[n+]1[O-]` [TPZ-DOPA], for which the IC50 with A549 (setting [8]) is 42.3 ± 1.2 µM; in the data set on A549 (A549, A549, Air, 3 h exposure) it was 83.6 ± 3.7 µM; with Calu-3 (setting [9]), 16.7 ± 0.9 µM; in the data set on Calu-3 (setting [10]) it was 20.6 ± 1.1 µM; in the data set on Calu-6 (setting [11]), 8.3 ± 0.9 µM; in the data set on Calu-6 (setting [12]), 26.7 ± 4.8 µM. In addition, the IC50 in the data set with HepG2 (setting [13]) amounted to 3.7 ± 0.7 µM; in the data set with HepG2 (setting [14]) it was 13.8 ± 2.8 µM; in the data set on Hep3B2 (Hep3B2, 0.1% O2, 3 h exposure), 4.8 ± 0.8 µM; in the data set with Hep3B2 (Hep3B2, Air, 3 h exposure), 21.8 ± 2.7 µM; with SNU-423 (setting [15]), 6 ± 1 µM; with SNU-423 (setting [16]), 22.5 ± 6.4 µM. Besides, the IC50 with SKBr3 (setting [17]) was found to be 13 ± 1.3 µM; in the data set with SKBr3 (setting [18]) it was 17.7 ± 1.5 µM; in the data set with MDA-MB-468 (setting [19]), 8.2 ± 2.6 µM; in the data set with MDA-MB-468 (setting [20]) it was 17.5 ± 5 µM; in the data set with T47D (0.1% O2, 3 h exposure) it was 18 ± 3.7 µM; with T47D (Air, 3 h exposure) it was 35.5 ± 6.4 µM. Moreover, the IC50 in the data set with MCF-7 (setting [21]) is 15.4 ± 7.09 µM; in the data set with MCF-7 (MCF7, MCF-7, Air, 3 h exposure) it was 23.1 ± 5.5 µM; in the data set on MDA-MB-231 (setting [22]), 9 ± 1.4 µM; with MDA-MB-231 (setting [23]), 23.1 ± 5.3 µM; in the data set with FaDu (0.1% O2, 3 h exposure), 6.5 ± 0.9 µM; with FaDu (Air, 3 h exposure), 18 ± 2 µM. For the same compound, the IC50 with MIA PACA-2 (setting [24]) is 9.6 ± 3.4 µM; in the data set with MIA PACA-2 (setting [25]), 28 ± 3.7 µM; in the data set on CAL-27 (setting [26]), 7.5 ± 4.4 µM; with CAL-27 (setting [27]), 18.7 ± 3.1 µM. Besides, the “72 h viability under hypoxia (0.1% oxygen) vs normoxia (air)” value with human tumoral cell lines [1] is “viability is lower under hypoxia than that under normoxia”.
Regarding `COc1cc(/C=C/C(=O)CC(=O)/C=C/c2ccc(O)c(OC)c2)ccc1O` [curcumin], in [2] (MDA-MB-231, 40 μM curcumin, 3 h exposure then 96 h), the “maximum cell kill that could be achieved” value was 40%. Moreover, the “concentration of curcumin needed for 40% cell kill” value in data set [2] (MDA-MB-231, 3 h exposure then 96 h, conjugate as curcumin contained) stood at 40 µM.
For the compound `Oc1cc(O)cc(/C=C/c2ccc(O)c(O)c2)c1` [piceatannol], in data set [3], the “tissue accumulation of free drug” value was “strong renal and pulmonary accumulation”.
Consider `O=c1c(O)c(-c2ccc(O)c(O)c2)oc2cc(O)cc(O)c12` [quercetin], for which the “dose of free quercetin giving results comparable to HABQ” value with LNCaP tumor came out at 25 mg/kg. For the same compound, the IC50 is 5 µM in data set [4]; 10 µM with MCF7 breast cancer cells; 20 µM in the data set with 16-F10 melanoma cells; 150 to 200 µM in data set [5]; 150 to 200 µM in [6]. For the same compound, the “tissue accumulation of free drug” value in [3] was “strong renal and pulmonary accumulation”.
Consider `Nc1n[n+]([O-])c2ccccc2[n+]1[O-]` [TPZ, tirapazamine], for which the IC50 in the data set on A549 (setting [8]) amounted to 81.3 ± 7.2 µM; in the data set with A549 (A549, A549, Air, 3 h exposure) it was 585 ± 26.3 µM; with Calu-3 (setting [9]), 71.7 ± 4.4 µM; with Calu-3 (setting [10]), 242 ± 6 µM; with Calu-6 (setting [11]), 75 ± 8.6 µM; in the data set on Calu-6 (setting [12]), 340 ± 11.5 µM. The IC50 was 13 ± 4.7 µM in the data set on HepG2 (setting [13]); 228 ± 40.1 µM in the data set with HepG2 (setting [14]); 31.2 ± 2.3 µM in the data set with Hep3B2 (Hep3B2, 0.1% O2, 3 h exposure); over 500 µM with Hep3B2 (Hep3B2, Air, 3 h exposure); 40 ± 5.8 µM with SNU-423 (setting [15]); over 500 µM in the data set on SNU-423 (setting [16]). Besides, the IC50 came to 6.3 ± 1.3 µM in the data set on SKBr3 (setting [17]); 218 ± 3.5 µM in the data set with SKBr3 (setting [18]); 7.5 ± 4.1 µM with MDA-MB-468 (setting [19]); 232 ± 35 µM in the data set with MDA-MB-468 (setting [20]); 17.1 ± 1 µM with T47D (0.1% O2, 3 h exposure); 271 ± 36.4 µM with T47D (Air, 3 h exposure). The IC50 with MCF-7 (setting [21]) is 20 ± 2 µM; with MCF-7 (MCF7, MCF-7, Air, 3 h exposure), 310 ± 18.3 µM; in the data set on MDA-MB-231 (setting [22]), 30 ± 5 µM; with MDA-MB-231 (setting [23]) it was 341 ± 37.5 µM; in the data set with FaDu (0.1% O2, 3 h exposure), 23.3 ± 5.4 µM; in the data set on FaDu (Air, 3 h exposure), 383 ± 104 µM. Moreover, the IC50 with MIA PACA-2 (setting [24]) is 15.3 ± 2.5 µM; with MIA PACA-2 (setting [25]), 270 ± 10 µM; in the data set on CAL-27 (setting [26]), 10 ± 2 µM; in the data set on CAL-27 (setting [27]) it was 318 ± 50.2 µM. Further, in the data set on human tumoral cell lines [7], the “difference between hypoxic and normoxic cytotoxicity” value was “larger difference between hypoxic and normoxic cytotoxicity”.
